Reference: patent publication US20260165323A1, “USE OF STROBILURIN TYPE COMPOUNDS FOR COMBATING PHYTOPATHOGENIC FUNGI CONTAINING AN AMINO ACID SUBSTITUTION F129L IN THE MITOCHONDRIAL CYTOCHROME B PROTEIN CONFERRING RESISTANCE TO QO […]” (priority 2022, published 2026)

Legend:
Type in all cases: in vivo
[1] = system: Phakopsora pachyrhizi containing the amino acid substitution F129L in the mitochondrial cytochrome b protein; experiment: Use Example 1: protective control of soybean rust on soybeans (PHAKPA P2); conditions: inoculated 2 days after spraying, % diseased leaf area
Method in brief: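 Protective test: plants were inoculated with the F129L cytochrome b rust strain 2 days after spraying to run-off, then held 24 h humid (~95% RH, 20-24° C) and up to 14 days at 23-27° C, 60-80% RH. Readout was visually assessed percent diseased leaf area.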

[2] = system: Phakopsora pachyrhizi containing the amino acid substitution F129L in the mitochondrial cytochrome b protein; experiment: Use Example 2: protective control of soybean rust on soybeans (PHAKPA P6); conditions: inoculated six days after spraying, % diseased leaf area
Method in brief: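 Disease was rated visually as % diseased leaf area up to 14 days after inoculation (23–27°C, 60–80% RH). Inoculum was P. pachyrhizi carrying cytochrome b F129L, followed by 24 h in a humid chamber (~95% RH). Inoculation came six days after protective spraying of seedlings with compound in acetone/DMSO–Wettol–water.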

Puccinia recondita [3] = experiment: Use Example 3: curative control of brown rust on wheat (PUCCRT K4); conditions: % diseased leaf area
Method: (§1) The compound was dissolved in a mixture of acetone and/or dimethylsulfoxide and the wetting agent/emulsifier Wettol, which is based on ethoxylated alkylphenoles, in a ratio (volume) solvent-emulsifier of 99 to 1 to give a total volume of 5 ml. Subsequently, water was added to total volume of 100 ml. This stock solution was then diluted with the described solvent-emulsifier-water mixture to the final concentration given in the tables below.
Use Example 3. Curative Control of Brown Rust on Wheat Caused by Puccinia recondita (PUCCRT K4)
The first two developed leaves of potted wheat seedling were dusted with spores of Puccinia recondita. To ensure the success the artificial inoculation, the plants were transferred to a humid chamber without light and a relative humidity of 95 to 99% and 20 to 24° C. for 24 h. The next 3 days the plants were cultivated in a greenhouse chamber at 20 to 24° C. and a relative humidity between 65 and 70%. Then the plants were sprayed to run-off with previously described spray solution, containing the concentration of active ingredient or their mixture as described below. The plants were allowed to air-dry. Then the trial plants were cultivated for 5 to 7 days in a greenhouse chamber at 20 to 24° C. and a relative humidity between 65 and 70%. The extent of fungal attack on the leaves was visually assessed as % diseased leaf area, the disease level of untreated controls was usually between 80 and 100%.

Puccinia recondita [4] = experiment: Use Example 4: preventative control of brown rust on wheat (PUCCRT P7); conditions: inoculated seven days after spraying, % diseased leaf area
Method: as §1
Use Example 4. Preventative Control of Brown Rust on Wheat Caused by Puccinia recondita (PUCCRT P7)
The first two developed leaves of potted wheat seedling were sprayed to run-off with previously described spray solution, containing the concentration of active ingredient or their mixture as described below. Seven days later the plants were dusted with spores of Puccinia recondita. To ensure the success of the artificial inoculation, the plants were transferred to a humid chamber without light and a relative humidity of 95 to 99% and 20 to 24° C. for 24 h. Then the trial plants were cultivated for 9 to 11 days in a greenhouse chamber at 20 to 24° C. and a relative humidity between 65 and 70%. The extent of fungal attack on the leaves was visually assessed as % diseased leaf area, the disease level of untreated controls was usually between 80 and 100%.

Row | Structure (SMILES) | % PHAKPA (F129L) Disease level P2 at 4 ppm [1] | % PHAKPA (F129L) Disease level P2 at 16 ppm [1] | % PHAKPA (F129L) Disease level P6 at 4 ppm [2] | % PHAKPA (F129L) Disease level P6 at 16 ppm [2] | % PUCCRT Disease level K4 at 4 ppm (Puccinia recondita [3]) | % PUCCRT Disease level K4 at 16 ppm (Puccinia recondita [3]) | % PUCCRT Disease level P7 at 4 ppm (Puccinia recondita [4]) | % PUCCRT Disease level P7 at 16 ppm (Puccinia recondita [4])
1 | CO/C=C(/C(=O)OC)c1cccc(Cl)c1CO/N=C(\COC)c1ccc(Cl)cc1 [compound 35] | 16% | 1% | 30% | 4% | 73% | 7% | 14% | 0%
2 | CCOC/C(=N\OCc1c(Cl)cccc1/C(=N\OC)C(=O)OC)c1ccccc1F [compound 20] | 60% | 43% | 63% | 63% | 80% | 77% | 70% | 57%
3 | CO/C=C(/C(=O)OC)c1cccc(Cl)c1CO/N=C(\COC)c1cccc(F)c1F [compound 87] | 5% | 0% | 2% | 0% | 67% | 10% | 28% | 5%
4 | CCOC/C(=N\OCc1c(Cl)cccc1/C(=C\OC)C(=O)OC)c1c(F)cc(F)cc1F [compound 30] | 7% | 0% | 25% | 5% | 77% | 35% | 80% | 37%
5 | COC/C(=N\OCc1c(Cl)cccc1/C(=N\OC)C(=O)OC)c1ccc(F)cc1F [compound 62] | 5% | 0% | 6% | 0% | 37% | 2% | 55% | 1%
6 | CNC(=O)/C(=N/OC)c1cccc(Cl)c1CO/N=C(\COC)c1cccc(Cl)c1 [compound 43] | 6% | 0% | 20% | 2% | 72% | 10% | 10% | 3%
7 | CCOC/C(=N\OCc1c(Cl)cccc1/C(=N\OC)C(=O)OC)c1cccc(Cl)c1 [compound 33] | 93% | 67% | 75% | 72% | 73% | 73% | 65% | 35%
8 | CCOCC(=NOCc1c(Cl)cccc1C(=COC)C(=O)OC)c1ccccc1F [compound 18] | 6% | 0% | 22% | 2% | 77% | 32% | 80% | 30%
9 | CNC(=O)/C(=N/OC)c1cccc(Cl)c1CO/N=C(\COC)c1c(F)cc(Cl)cc1F [compound 102] | 21% | 1% | 16% | 2% | 80% | 36% | 32% | 6%
10 | CCOC/C(=N\OCc1c(Cl)cccc1/C(=C\OC)C(=O)OC)c1cccc(F)c1 [compound 27] | 5% | 0% | 17% | 1% | 57% | 12% | 40% | 7%
11 | CNC(=O)/C(=N/OC)c1cccc(Cl)c1CO/N=C(\COC)c1cc(F)cc(F)c1 [compound 86] | 17% | 0% | 10% | 0% | 52% | 4% | 19% | 4%
12 | CO/C=C(/C(=O)OC)c1cccc(Cl)c1CO/N=C(\COC)c1ccc(Cl)c(Cl)c1 [compound 71] | 31% | 4% | 28% | 7% | 34% | 3% | 4% | 3%
13 | CO/C=C(/C(=O)OC)c1cccc(Cl)c1CO/N=C(\COC)c1cccc(C#N)c1 [compound 116] | 31% | 3% | 48% | 11% | 5% | 0% | 15% | 3%
14 | CCOCC(=NOCc1c(Cl)cccc1C(=COC)C(=O)OC)c1ccc(F)cc1 [compound 23] | 9% | 0% | 25% | 6% | 67% | 23% | 37% | 6%
15 | CNC(=O)/C(=N/OC)c1cccc(Cl)c1CO/N=C(\COC)c1cccc(OC)c1 [compound 119] | 32% | 0% | 36% | 5% | 42% | 2% | 13% | 1%
16 | CNC(=O)/C(=N/OC)c1cccc(Cl)c1CO/N=C(\COC)c1ccc(Cl)c(F)c1 [compound 109] | 13% | 2% | 37% | 4% | 63% | 4% | 5% | 0%
17 | CNC(=O)/C(=N/OC)c1cccc(Cl)c1CO/N=C(\COC)c1ccc(Cl)cc1F [compound 100] | 24% | 2% | 20% | 3% | 78% | 6% | 12% | 4%
18 | COC/C(=N\OCc1c(Cl)cccc1/C(=N\OC)C(=O)OC)c1c(F)cc(F)cc1F [compound 28] | 67% | 13% | 85% | 27% | 75% | 77% | 57% | 4%
